In patent US20220265694A1, “COMPOSITIONS AND METHODS FOR TREATING AN INFECTION” (CMPD LICENSING, LLC, priority 2016, published 2022):

Tests used:
[1] = test system: Staphylococcus epidermidis; assay: Expected efficacy of antibiotic agents; conditions: expected efficacy against Staphylococcus epidermidis; Gram: pos
Pseudomonas aeruginosa = assay: Expected efficacy of antibiotic agents; conditions: expected efficacy against Pseudomonas aeruginosa; Gram: neg
Bartonella bacilliformis = assay: Expected efficacy of antibiotic agents; conditions: expected efficacy against Bartonella bacilliformis; Gram: neg
Legionella pneumophila = conditions: expected efficacy against Legionella pneumophila; Gram: neg
Shigella boydii = assay: Expected efficacy of antibiotic agents; conditions: expected efficacy against Shigella boydii; Gram: neg
Corynebacterium jeikeium = assay: Expected efficacy of antibiotic agents; conditions: expected efficacy against Corynebacterium jeikeium; Gram: pos
[2] = test system: Methicillin resistant staph aureus (MRSA); assay: Expected efficacy of antibiotic agents; conditions: expected efficacy against Methicillin resistant staph aureus (MRSA); Gram: pos
Rickettsiae = conditions: expected efficacy against Rickettsiae; Gram: neg
Yersinia pestis = conditions: expected efficacy against Yersinia pestis; Gram: neg
Neisseria gonorrhoeae = assay: Expected efficacy of antibiotic agents; conditions: expected efficacy against Neisseria gonorrhoeae; Gram: neg
Chlamydia pneumoniae = assay: Expected efficacy of antibiotic agents; conditions: expected efficacy against Chlamydia pneumoniae; Gram: n/a
Providencia rettgeri = assay: Expected efficacy of antibiotic agents; conditions: expected efficacy against Providencia rettgeri; Gram: neg
Escherichia coli = assay: Expected efficacy of antibiotic agents; conditions: expected efficacy against Escherichia coli; Gram: neg
Francisella tularensis = conditions: expected efficacy against Francisella tularensis; Gram: neg
Pseudomonas fluorescens = assay: Expected efficacy of antibiotic agents; conditions: expected efficacy against Pseudomonas fluorescens; Gram: neg
Providencia stuartii = assay: Expected efficacy of antibiotic agents; conditions: expected efficacy against Providencia stuartii; Gram: neg
Enterobacter aerogenes = assay: Expected efficacy of antibiotic agents; conditions: expected efficacy against Enterobacter aerogenes; Gram: neg
Enterococcus faecium = assay: Expected efficacy of antibiotic agents; conditions: expected efficacy against Enterococcus faecium; Gram: pos
Klebsiella oxytoca = assay: Expected efficacy of antibiotic agents; conditions: expected efficacy against Klebsiella oxytoca; Gram: neg
Neisseria meningitidis = assay: Expected efficacy of antibiotic agents; conditions: expected efficacy against Neisseria meningitidis; Gram: neg
Vibrio cholerae = assay: Expected efficacy of antibiotic agents; conditions: expected efficacy against Vibrio cholerae; Gram: neg
Shigella flexneri = assay: Expected efficacy of antibiotic agents; conditions: expected efficacy against Shigella flexneri; Gram: neg
Citrobacter diversus = assay: Expected efficacy of antibiotic agents; conditions: expected efficacy against Citrobacter diversus; Gram: neg
Haemophilus influenzae = assay: Expected efficacy of antibiotic agents; conditions: expected efficacy against Haemophilus influenzae; Gram: neg
Morganella morganii = assay: Expected efficacy of antibiotic agents; conditions: expected efficacy against Morganella morganii; Gram: neg
Campylobacter jejuni = assay: Expected efficacy of antibiotic agents; conditions: expected efficacy against Campylobacter jejuni; Gram: neg
Proteus vulgaris = assay: Expected efficacy of antibiotic agents; conditions: expected efficacy against Proteus vulgaris; Gram: neg
Shigella dysenteriae = assay: Expected efficacy of antibiotic agents; conditions: expected efficacy against Shigella dysenteriae; Gram: neg
Proteus mirabilis = assay: Expected efficacy of antibiotic agents; conditions: expected efficacy against Proteus mirabilis; Gram: neg
Citrobacter freundii = assay: Expected efficacy of antibiotic agents; conditions: expected efficacy against Citrobacter freundii; Gram: neg
Salmonella typhi = assay: Expected efficacy of antibiotic agents; conditions: expected efficacy against Salmonella typhi; Gram: neg
Serratia marcescens = assay: Expected efficacy of antibiotic agents; conditions: expected efficacy against Serratia marcescens; Gram: neg
[3] = test system: Haemophilus parainfluenzae; assay: Expected efficacy of antibiotic agents; conditions: expected efficacy against Haemophilus parainfluenzae; Gram: neg
Klebsiella pneumoniae = assay: Expected efficacy of antibiotic agents; conditions: expected efficacy against Klebsiella pneumoniae; Gram: neg
Shigella sonnei = assay: Expected efficacy of antibiotic agents; conditions: expected efficacy against Shigella sonnei; Gram: neg
Moraxella catarrhalis = assay: Expected efficacy of antibiotic agents; conditions: expected efficacy against Moraxella catarrhalis; Gram: neg
Bacteroides fragilis = assay: Expected efficacy of antibiotic agents; conditions: expected efficacy against Bacteroides fragilis; Gram: anaer
Mycoplasma pneumoniae = assay: Expected efficacy of antibiotic agents; conditions: expected efficacy against Mycoplasma pneumoniae; Gram: n/a
Haemophilus ducreyi = assay: Expected efficacy of antibiotic agents; conditions: expected efficacy against Haemophilus ducreyi; Gram: neg
Streptococcus pneumoniae = assay: Expected efficacy of antibiotic agents; conditions: expected efficacy against Streptococcus pneumoniae; Gram: pos
Bordetella pertussis = assay: Expected efficacy of antibiotic agents; conditions: expected efficacy against Bordetella pertussis; Gram: neg
Streptococcus agalactiae = assay: Expected efficacy of antibiotic agents; conditions: expected efficacy against Streptococcus agalactiae; Gram: pos
[4] = test system: Viridans group streptococci; assay: Expected efficacy of antibiotic agents; conditions: expected efficacy against Viridans group streptococci; Gram: pos
Peptostreptococcus = assay: Expected efficacy of antibiotic agents; conditions: expected efficacy against Peptostreptococcus; Gram: pos
[5] = test system: Corynebacterium urealyticum; assay: Expected efficacy of antibiotic agents; conditions: expected efficacy against Corynebacterium urealyticum; Gram: pos
Chlamydia trachomatis = assay: Expected efficacy of antibiotic agents; conditions: expected efficacy against Chlamydia trachomatis; Gram: n/a
[6] = test system: Klebsiella (Calymmatobacterium); assay: Expected efficacy of antibiotic agents; conditions: expected efficacy against Klebsiella (Calymmatobacterium); Gram: neg
Enterobacter cloacae = assay: Expected efficacy of antibiotic agents; conditions: expected efficacy against Enterobacter cloacae; Gram: neg
[7] = test system: Acinetobacter calcoaceticus; assay: Expected efficacy of antibiotic agents; conditions: expected efficacy against Acinetobacter calcoaceticus; Gram: neg
Clostridium perfringens = conditions: expected efficacy against Clostridium perfringens; Gram: anaer
Acinetobacter baumannii = assay: Expected efficacy of antibiotic agents; conditions: expected efficacy against Acinetobacter baumannii; Gram: neg
Enterococcus faecalis = assay: Expected efficacy of antibiotic agents; conditions: expected efficacy against Enterococcus faecalis; Gram: pos
Clostridium difficile = assay: Expected efficacy of antibiotic agents; conditions: expected efficacy against Clostridium difficile; Gram: anaer
Chlamydia psittaci = conditions: expected efficacy against Chlamydia psittaci; Gram: n/a
Acinetobacter lwoffii = assay: Expected efficacy of antibiotic agents; conditions: expected efficacy against Acinetobacter lwoffii; Gram: neg
Streptococcus pyogenes = assay: Expected efficacy of antibiotic agents; conditions: expected efficacy against Streptococcus pyogenes; Gram: pos
[8] = test system: Staphylococcus aureus (MSSA); assay: Expected efficacy of antibiotic agents; conditions: expected efficacy against Staphylococcus aureus (MSSA); Gram: pos
Enterobacter sakazakii = assay: Expected efficacy of antibiotic agents; conditions: expected efficacy against Enterobacter sakazakii; Gram: neg

O=C(O)c1cn(C2CC2)c2cc(N3CCNCC3)c(F)cc2c1=O [Ciprofloxacin]
Efficacy [1]: yes
Efficacy (Pseudomonas aeruginosa): yes
Efficacy (Bartonella bacilliformis): yes
Efficacy (Legionella pneumophila): yes
Efficacy (Shigella boydii): yes
Efficacy (Corynebacterium jeikeium): no
Efficacy [2]: no
Efficacy (Rickettsiae): yes
Efficacy (Yersinia pestis): yes
Efficacy (Neisseria gonorrhoeae): yes
Efficacy (Chlamydia pneumoniae): yes
Efficacy (Providencia rettgeri): yes
Efficacy (Escherichia coli): yes
Efficacy (Francisella tularensis): yes
Efficacy (Pseudomonas fluorescens): yes
Efficacy (Providencia stuartii): yes
Efficacy (Enterobacter aerogenes): yes
Efficacy (Enterococcus faecium): no
Efficacy (Klebsiella oxytoca): yes
Efficacy (Neisseria meningitidis): yes
Efficacy (Vibrio cholerae): yes
Efficacy (Shigella flexneri): yes
Efficacy (Citrobacter diversus): yes
Efficacy (Haemophilus influenzae): yes
Efficacy (Morganella morganii): yes
Efficacy (Campylobacter jejuni): yes
Efficacy (Proteus vulgaris): yes
Efficacy (Shigella dysenteriae): yes
Efficacy (Proteus mirabilis): yes
Efficacy (Citrobacter freundii): yes
Efficacy (Salmonella typhi): yes
Efficacy (Serratia marcescens): yes
Efficacy [3]: yes
Efficacy (Klebsiella pneumoniae): yes
Efficacy (Shigella sonnei): yes
Efficacy (Moraxella catarrhalis): yes
Efficacy (Bacteroides fragilis): no

NC[C@H]1O[C@H](O[C@H]2[C@H](O)[C@@H](O[C@H]3O[C@H](CO)[C@@H](O)[C@H](N)[C@H]3O)[C@H](N)C[C@@H]2N)[C@H](N)C[C@@H]1O [Tobramycin]
Efficacy [1]: no
Efficacy (Mycoplasma pneumoniae): no
Efficacy (Pseudomonas aeruginosa): yes
Efficacy (Haemophilus ducreyi): yes
Efficacy (Streptococcus pneumoniae): no
Efficacy (Legionella pneumophila): no
Efficacy (Shigella boydii): yes
Efficacy (Bordetella pertussis): no
Efficacy (Streptococcus agalactiae): no
Efficacy (Corynebacterium jeikeium): no
Efficacy [4]: no
Efficacy (Peptostreptococcus): no
Efficacy [2]: no
Efficacy [5]: no
Efficacy (Yersinia pestis): yes
Efficacy (Neisseria gonorrhoeae): no
Efficacy (Chlamydia pneumoniae): no
Efficacy (Chlamydia trachomatis): no
Efficacy (Escherichia coli): yes
Efficacy [6]: yes
Efficacy (Pseudomonas fluorescens): yes
Efficacy (Enterobacter aerogenes): yes
Efficacy (Enterobacter cloacae): yes
Efficacy [7]: no
Efficacy (Enterococcus faecium): no
Efficacy (Clostridium perfringens): no
Efficacy (Klebsiella oxytoca): yes
Efficacy (Neisseria meningitidis): no
Efficacy (Vibrio cholerae): no
Efficacy (Shigella flexneri): yes
Efficacy (Citrobacter diversus): yes
Efficacy (Haemophilus influenzae): yes
Efficacy (Campylobacter jejuni): yes
Efficacy (Proteus vulgaris): yes
Efficacy (Acinetobacter baumannii): no
Efficacy (Shigella dysenteriae): yes
Efficacy (Proteus mirabilis): yes
Efficacy (Citrobacter freundii): yes
Efficacy (Enterococcus faecalis): no
Efficacy (Clostridium difficile): no
Efficacy (Chlamydia psittaci): no
Efficacy (Serratia marcescens): yes
Efficacy (Acinetobacter lwoffii): no
Efficacy (Streptococcus pyogenes): no
Efficacy [8]: no
Efficacy (Klebsiella pneumoniae): yes
Efficacy (Shigella sonnei): yes
Efficacy (Moraxella catarrhalis): yes
Efficacy (Enterobacter sakazakii): yes
Efficacy (Bacteroides fragilis): no
